Reference: publication PMC11166458, “Caskin2 is a novel talin- and Abi1-binding protein that promotes cell motility” (Journal of Cell Science, 2024)
No end group written: not given here.

Columns and labels:
[1] = tested on: MCF7 cells; experiment: Caskin2–talin colocalization in MCF7 cells (Pearson's correlation); assay type: cell-based, Human; settings: blebbistatin 10 µM, 20 µM for 45 min (Fig. S3B)
Method: PA-JEB/β4 keratinocytes were seeded on glass coverslips and cultured for 24 h in complete KGM, and then continued to be cultured for a further 16 h in DMEM with 10% FCS. GE11^tetONβ1 and MCF7 cells were seeded on glass coverslips and cultured for 24 h in DMEM with 10% FCS. Cells were fixed in 2% paraformaldehyde and permeabilized with 0.2% Triton X-100 for 5 min, blocked with PBS containing 2% bovine serum albumin (BSA; Sigma-Aldrich) for 45 min and subsequently incubated with primary and secondary antibodies for 1 h. In between antibody steps, the coverslips were washed three times with PBS. Actin fibers were visualized by staining with Phalloidin–Alexa Fluor 647 (Cell Signaling Technology). Nuclei were stained with DAPI. Samples were mounted on glass slides in Mowiol after three washing steps with PBS. Images were acquired with a Leica TCS SP5 confocal microscope with a 63× (NA 1.4) oil objective. Software for image acquisition is Leica LAS AF 3.0.2 ([Wang et al., 2020b]).
Imaging analysis was performed using FIJI software ([Schindelin et al., 2012]). The levels of colocalization between Caskin2 and various other proteins, including integrin β4, FA proteins and CMSC components, was performed using Pearson's co-efficient analysis in the JACoP module of ImageJ ([Carisey et al., 2013]; [Wang et al., 2020b]).

[2] = tested on: talin-R7R8 (residues 1358–1653), R8 domain; experiment: X-ray structure of talin-R7R8 in complex with Caskin2-LD peptide, interface analysis; assay type: binding, murine; settings: electron density map; 1:2 molar ratio of protein to peptide
Method: A codon-optimized synthetic gene encoding murine talin-R7/R8 domains (residues 1358–1653) was cloned into the pETNKI-6xhis-3C-LIC vector ([Luna-Vargas et al., 2011]). The 6×his–3C–talin-R7/R8 protein was expressed in Bl21(DE3) cells, for 18 h at 20°C upon induction with 0.4 mM IPTG. Cells were harvested by centrifugation (4000 g for 15 min) and stored at −20°C. After thawing, cells were resuspended in lysis buffer [25 mM Tris-HCl pH 8.0, 10 mM imidazole, 200 mM NaCl, 1 mM TCEP and 5 μg/ml DNase (Roche)] and lysed by sonication. The soluble lysate fractions were collected after centrifugation (55,000 g at 4°C for 30 min) and applied to a nickel Sepharose column. Beads were washed with wash buffer (lysis buffer without DNase) and protein was eluted in the same buffer supplemented with 250 mM imidazole. The 6×His tag was cleaved off by his-3C protease during dialysis against 25 mM Tris-HCl pH 8.0, 100 mM NaCl, 1 mM TCEP for 16 h at 4°C. The protein solution was diluted with an equal volume of 25 mM Tris-HCl pH 8.0, 1 mM TCEP before his-3C protease and uncleaved 6×his–talin-R7/R8 were removed by nickel Sepharose. The protein was further purified by anion exchange chromatography (Resource Q column, Cytiva) followed by size exclusion chromatography (S75 Superdex 16/60, Cytiva) in 25 mM Tris-HCl pH 8.0, 100 mM NaCl, 1 mM TCEP. Talin-R7/R8 eluted in a single peak. […]

Row | Molecule | overall Caskin2–talin colocalization [1] | binding to talin-R8 in crystal structure [2]
1 | Cc1ccc2c(c1)C(=O)C1(O)CCN(c3ccccc3)C1=N2 (centres unmarked) [blebbistatin] | increased overall Caskin2–talin colocalization | –
2 | Caskin2-LD peptide: C-terminal LD motif peptide of Caskin2 (residues 1187–1202) (STMFDALADQLDAMLD; also: Atto488 label) | – | clear binding of the Caskin2-LD peptide to the R8 motif
